Laboratory results as given in article PMC10537356, “Analyzing the Material Basis of Anti-RSV Efficacy of Lonicerae japonicae Flos Based on the PK-PD Model” (Molecules, 2023).
Read-outs that look alike come from different tables or passages of the source.

Key:
[1] = Pharmacokinetic study of 15 LJF components in plasma of RSV-infected mice after oral LJF extract (UHPLC-QQQ MS); type: in vivo; set-up: Tmax: unit: h; settings: RSV mice plasma, oral LJF extract 12.0 g/kg; for AUC(0-t): read-out: AUC(0–t); for AUC(0-inf): read-out: AUC(0–∞); for Cmax: read-out: Cmax; for MRT last: read-out: MRT(0–t); for half-life: read-out: T1/2 (converted)
Description: The LJF (12.0 g) were pulverized and soaked in pure water at a solid: liquid ratio of 1:200 and followed by extraction for 30 min. Then, the LJF extract was obtained by filtration, centrifugation (5000 rpm, 10 min) and concentration. Finally, the remains were freeze-dried and stored at −20 °C for subsequent pharmacokinetic assays.
All mice fasted for 1 night after being acclimatized for 7 days (no water restriction) and were randomly separated into 3 groups with 6 mice in each group. One group of healthy mice was used as the normal control group and administered physiological saline; the model group was established by intranasal infusion of RSV (TCID50 = 10^−6, 35 μL/mouse) and administered physiological saline. Members of the drug group were orally administered with LJF extract at the dose of 12 g/kg after infecting RSV. At 0.25 h, 0.5 h, 0.75 h, 1 h, 1.5 h, 2 h, 3 h,4 h, 6 h, 8 h, 10 h, 12 h and 24 h after administration blood samples (approximately 500 μL) were collected into anticoagulant tubes. The blood samples were centrifuged at 3500 rpm, 4 °C for 10 min, and the plasma (upper layer) was separated and stored at −80 °C till analysis. At the same time, the lung tissue was removed, weighed and placed in the EP tube together with five times the weight of the lung tissue in PBS solution containing 1% PMSF. Subsequently, the tissue samples were homogenized using the tissue grinder, and centrifugation to obtain a supernatant for further examination.
An amount of 50 μL IS and 2 mL acetonitrile were mixed into 200 μL plasma, after which the mixture was centrifuged (12,000 rpm, 4 °C, 10 min) and dried with nitrogen. The residue was dissolved in 70% acetonitrile containing 1% formic acid, centrifuged and subsequently the supernatant (2 μL) was injected into the UHPLC-QQQ-MS system.
Agilent 1260 series (Santa Clara, CA, USA) chromatography system was equipped with a solvent degasser, G1311B quaternary pump and G1329B automated injector. The elution was performed on a Halo® C18 column (2.1 × 100 mm, 2.7 μm) at 30 °C, and the mobile phase consisted of 0.05% formic acid in water for solvent A and 0.05% formic acid in acetonitrile for solvent B at a flow rate of 0.3 mL/min. The gradient elution was as follows: 0–30 min at 5–25% B, 30–35 min at 25–55% B, 35–45 min at 55–70% B, 45–55 min at 70–100% B, and 5 μL for analysis.
The MS/MS analysis was performed by Agilent 6470 Triple Quadrupole LC/MS (Santa Clara, CA, USA) with an ESI source. MRM was selected for the detection of the standards and internal standard with a dwell time of 2 ms. The mass spectrometry conditions were optimized as follows: Nebulizer pressure: 50 psi; capillary: positive: 4000 V, negative: 3500 V; cell acceleration voltage: 5 V; gas temp: 350 °C and flow rate at 10 L/min. The acquired data were processed and analyzed by Mass Hunter Workstation quantitative analysis.
Fifteen standards and IS were optimized for mass conditions by the positive and negative ion modes of the chromatographic system, respectively. The pharmacokinetics of 15 chemical constituents in RSV-infected mice were assessed using the UPLC-QQQ-MS/MS method.
The pharmacokinetic parameters, including maximum concentration (Cmax), time to reach Cmax (Tmax), the elimination half-life (T1/2), mean residence time (MRT), and area under the concentration–time curve (AUC) were calculated using non-compartmental analysis by Phoenix 8.1.0.3530.

RSV = settings: cited from earlier work; for anti-RSV effects: by inhibiting virus–cell fusion in the early stage and cell–cell fusion at the end of the RSV replication cycle
[2] = mouse, plasma, po, 12 g/kg, n = 6

## O=C(O)/C=C/c1ccc(O)c(O)c1 [Caffeic acid]
[1]
  shape of the concentration–time curve: double or multiple peaks
[1]; [2]
  AUC(0-t): 2920 ng·h/mL
  AUC(0-inf): 3280 ng·h/mL
  Cmax: 779 ± 19.2 ng/mL
  MRT last: 5.92 ± 0.239 h
  half-life: 7.92 ± 1.1 h
[1]; mouse, n = 6, read-out: Tmax
  Tmax: 2 h

## O=C(/C=C/c1ccc(O)c(O)c1)O[C@@H]1C[C@](O)(C(=O)O)C[C@@H](O)[C@H]1O [Chlorogenic acid]
[1]
  shape of the concentration–time curve: double or multiple peaks
[1]; [2]
  AUC(0-t): 5190 ng·h/mL
  AUC(0-inf): 5900 ng·h/mL
  Cmax: 5600 ng/mL
  MRT last: 2.95 ± 0.0749 h
  half-life: 26.1 ± 9.42 h
[1]; mouse, n = 6, read-out: Tmax
  Tmax: 2 h
RSV; modulating TLR3, TBK1, IRF3 expression, decreasing IFN-β
  inhibition of RSV infection: could inhibit RSV infection

## O=C(C=Cc1ccc(O)c(O)c1)OC1C(O)CC(O)(C(=O)O)CC1O (stereo not shown) [Cryptochlorogenic acid]
[1]
  shape of the concentration–time curve: double or multiple peaks
[1]; [2]
  AUC(0-t): 1260 ng·h/mL
  AUC(0-inf): 1320 ng·h/mL
  Cmax: 1410 ng/mL
  MRT last: 2.79 ± 0.225 h
  half-life: 13.5 ± 2.98 h
[1]; mouse, n = 6, read-out: Tmax
  Tmax: 2 h

## O=C(C=Cc1ccc(O)c(O)c1)OC1CC(O)(C(=O)O)CC(OC(=O)C=Cc2ccc(O)c(O)c2)C1O (stereo not shown) [Isochlorogenic acid A]
[1]
  shape of the concentration–time curve: double or multiple peaks
[1]; [2]
  AUC(0-t): 1070 ng·h/mL
  AUC(0-inf): 1450 ng·h/mL
  Cmax: 822 ± 53.9 ng/mL
  MRT last: 4.64 ± 0.289 h
  half-life: 26.6 ± 4.52 h
[1]; mouse, n = 6, read-out: Tmax
  Tmax: 2 h

## O=C(C=Cc1ccc(O)c(O)c1)OC1CC(O)(C(=O)O)CC(O)C1OC(=O)C=Cc1ccc(O)c(O)c1 (stereo not shown) [Isochlorogenic acid B]
[1]
  shape of the concentration–time curve: double or multiple peaks
[1]; n = 6
  AUC(0–t): 1100 ng·h/mL
  AUC(0–∞): 1740 ng·h/mL
  MRT(0–t): 7.35 ± 0.170 h
  T1/2: 24.4 ± 2.72 h
  Tmax: 2.00 ± 0.00 h
  Cmax: 415 ± 4.69 ng/mL
RSV
  anti-RSV effects: specific anti-RSV effects

## O=C(C=Cc1ccc(O)c(O)c1)OC1CC(O)(C(=O)O)CC(O)C1OC(=O)C=Cc1ccc(O)c(O)c1 (stereo not shown) [Isochlorogenic acid C]
[1]
  shape of the concentration–time curve: double or multiple peaks
[1]; [2]
  AUC(0-t): 926 ± 39 ng·h/mL
  AUC(0-inf): 1450 ng·h/mL
  Cmax: 560 ± 20.7 ng/mL
  MRT last: 6.39 ± 0.337 h
  half-life: 26.9 ± 3.16 h
[1]; mouse, n = 6, read-out: Tmax
  Tmax: 2 h
RSV
  anti-RSV effects: specific anti-RSV effects

## O=c1c(O[C@@H]2O[C@H](CO)[C@@H](O)[C@H](O)[C@H]2O)c(-c2ccc(O)c(O)c2)oc2cc(O)cc(O)c12 [Isoquercitrin]
[1]
  shape of the concentration–time curve: double or multiple peaks
[1]; mouse, in vivo, n = 6
  AUC(0-t): 26.5 ± 1.19 ng·h/mL
  AUC(0-inf): 39.6 ± 8.47 ng·h/mL
  Cmax: 26.5 ± 1.16 ng/mL
  MRT last: 1.5 ± 0.0366 h
  half-life: 2.95 ± 1.72 h
[1]; mouse, in vivo, n = 6, read-out: Tmax
  Tmax: 0.5 h
